Data set [1] has as its system Sp2/0 myeloma. The method, then: BALB/c male mice, aged 6-8 weeks and weighing ˜18-25 g, are procured from the Central Animal Facility, Indian Institute of Science, Bangalore. All mice received care according to institutional guidelines and are maintained under controlled conditions and fed with a standard diet.
Sp2/0 cells, a myeloma cell line, is grown in T175 flasks in IMDM complete medium supplemented with 10% fetal bovine serum, 2 mM L-glutamine, 100 U/ml penicillin, 100 μg/ml streptomycin, 10% nonessential amino acids, 10% HEPES, 10% sodium pyruvate, 50 μM 2-ME, 10 μg/ml gentamycin in a humidified atmosphere of 5% CO2 at 37° C.
An experimental syngeneic tumor model using the myeloma, Sp2/0 in BALB/c mice is studied. […] Different amounts of cells are washed and injected s.c. to establish the cell numbers that need to be injected to reproducibly display solid tumors within two weeks. Mice are sacrificed once the tumors reach a large size to avoid distress. Tumor volume is monitored on the mentioned days and calculated with the formula, V=a×b^2/2, where a is the longest and b is perpendicular to it, are measured on the surface of the tumor with vernier calipers.
BALB/c mice (5 per group) of 6 to 8 weeks of age are subcutaneously injected with Sp2/0 myeloma cells (˜10×10^6 cells/mouse). Thereafter, mice are intradermally injected with Mycobacterium indicus pranii (˜5×10^8) either 1 day prior to or 3 or 6 days post-inoculation of tumor cells. Tumor volume is estimated on 9th, 12th and 14th day of tumor inoculation. Vehicle alone (0.1 ml of PBS) is used as control and intradermally injected 3 days after administration of cells.
Next, the optimum dose of Mycobacterium indicus pranii required for reducing the tumor size and delaying the appearance of tumors is titrated. BALB/c mice (5 per group) of 6 to 8 weeks of age are subcutaneously injected with Sp2/0 Myeloma cells (˜10×10^6 cells/mouse). Mice are intradermally injected with different doses of Mycobacterium indicus pranii (5×10^3, 5×10^5, 5×10^7 and 5×10^8) 3 days post-inoculation of tumor cells. Tumor volume is estimated on the 9th, 12th and 14th day of tumor inoculation. Vehicle alone (0.1 ml of PBS) is used as control and intradermally injected 3 days after administration of cells.
BALB/c mice are intraperitoneally injected with three different doses of Cyclophosphamide, Indomethacin and RU486 four days after implantation of Sp2/0 cells. The doses of Cyclophosphamide, Indomethacin and RU486 are chosen based on that administered to mice and the standardization of the same in the Sp2/0 tumor model is depicted in FIG. 4. BALB/c mice (5 per group) of 6 to 8 weeks of age are subcutaneously injected with Sp2/0 myeloma cells (˜10×10^6 cells/mouse). The mice are then intraperitoneally injected with different doses of either Cyclophosphamide (5, 15 or 100 mg/Kg body weight/mouse) or Indomethacin (0.1, 1 or 10 mg/Kg body weight/mouse) or RU486 (0.1, 1 or 5 mg/Kg body weight/mouse), 4 days post-inoculation of tumor cells. Tumor volume is estimated on the 9th, 12th and 14th day after tumor inoculation. Vehicle alone (0.5 ml of PBS) is used as control and intradermally injected 4 days after administration of cells.
BALB/c mice (5 per group) of 6 to 8 weeks of age are subcutaneously injected with Sp2/0 myeloma cells (˜10×10^6 cells/mouse). Four groups of mice are intradermally injected with Mycobacterium indicus pranii (˜5×10^8) 3 days post-inoculation of tumor cells. Three groups of Mycobacterium indicus pranii injected mice are intraperitoneally injected with Cyclophosphamide (15 mg/Kg b. wt.), Indomethacin (1 mg/Kg b. wt.) and RU486 (1 mg/Kg b. wt.) on the next day.

Data set [2] concerns B-cell malignancies such as Multiple myeloma, Solitary plasmacytoma and Plasma cell leukemia. Briefly: Mice with B-cell malignancies treated with MIP, Cyclophosphamide or both (Conclusion). The data set is classed as in vivo. The note with it: MIP ~5×10^8 intradermal and/or Cyclophosphamide 15 mg/Kg i.p. next day; compared with initial tumor size. The method, then: The synergistic combination of Cyclophosphamide and Mycobacterium indicus pranii is administered to mice detected with B-cell malignancies such as Multiple myeloma, Solitary plasmacytoma and Plasma cell leukemia. The experiment is conducted mainly on mice which have been detected with said myelomas. The mice are initially examined and the tumor growth and size approximately determined. The mice are then divided into groups so that 5 mice form a group. One mice group is subjected to only Mycobacterium indicus pranii treatment and another group to only Cyclophosphamide treatment. The third group of mice is subjected to a treatment of Mycobacterium indicus pranii along with Cyclophosphamide. This third group of mice are initially intradermally injected with Mycobacterium indicus pranii at a concentration range of ˜5×10^8 cells. […] The mice are then re-examined and the tumor volume estimated on different days after Mycobacterium indicus pranii administration.

Data set [3] relates to EL4 thymoma. Briefly: EL4 thymoma subcutaneous tumor model in C57BL/6 mice (tumor volume). In kind it is in vivo. On the procedure: EL4 cells, a thymoma cell line, is grown in T75 flasks in RPMI complete medium supplemented with 10% fetal bovine serum, 2 mM L-glutamine, 100 U/ml penicillin, 100 μg/ml streptomycin, 10% nonessential amino acids, 10% HEPES, 10% sodium pyruvate, 50 μM 2-ME, 10 μg/ml gentamycin in a humidified atmosphere of 5% CO2 at 37° C.
C57BL/6 mice (5 per group) of 6 to 8 weeks of age are injected subcutaneously with EL4 […] cells (˜0.5×10^6 cells/mouse). Two groups of mice are intradermally injected with Mycobacterium indicus pranii (˜5×10^8) either 3 or 7 days post-inoculation of tumor cells. Two groups of mice one injected previously with MIP and another uninjected are intraperitoneally injected with 15 mg/Kg body weight of Cyclophosphamide on the next day. Tumor volume is estimated in the three groups of mice on the 11th, 14th and 17th day after tumor inoculation. This has been depicted in FIG. 13. Vehicle alone (0.1 ml of PBS) is used as control and intradermally injected 7 days after administration of cells.

Experimental findings from patent publication US8367075B2, “Synergistic combination and method thereof” (Indian Institute of Science, priority 2010, dated 2013) are described below.

Each structure is given as a SMILES string. Entries after “also recorded” stand apart in the source; their conditions may differ. Where two headings read alike, the source gives them in different places.

As to `O=P1(N(CCCl)CCCl)NCCCO1` (stereo not shown) [Cyclophosphamide], the tumor progression entry was “not able to reduce tumor progression” in data set [1] (5 mg/Kg body weight i.p. day 4, alone) and “able to prevent tumor progression to a considerable extent” in data set [1] (100 mg/Kg body weight i.p. day 4, alone). For the same compound, the “tumor volume / tumor progression” value in data set [1] (15 mg/Kg b. wt. i.p. day 4, alone) is reported as “not able to sufficiently prevent tumor progression; also recorded: showed some reduction in tumor volume”. In addition, the tumor volume result in data set [1] (15 mg/Kg b. wt. i.p. day 8, alone) is on record as “showed some reduction in tumor volume; also recorded: unable to induce any effect on tumor reduction”; in data set [1] (50 mg/Kg b. wt. i.p. day 4, alone), “effective”; in data set [1] (50 mg/kg i.p. day 8, alone), “significant tumor reduction”; in data set [1] (1, 5 and 15 mg/Kg b. wt. i.p. day 8, alone), “did not significantly reduce tumor volume”; in data set [1] (1 and 5 mg/Kg b. wt. i.p. day 4, alone), “unable to reduce tumor volume”; in data set [1] (Cyclophosphamide alone on the same day as MIP (day 3), one day prior or one day after) it was “had no effect on tumor volume”. For the same compound, the toxicity to mice result in data set [1] (50 mg/Kg b. wt. i.p.) is “toxic to mice”. Further, in data set [1] (100 mg/Kg body weight i.p. day 4), the “effect on the mice (toxicity)” value was “reduced body weight and hair loss”. The tumor size/volume result in data set [2] is on record as “failed to elicit a similar tumor size reduction”. Besides, the tumor reduction entry in data set [3] (15 mg/Kg body weight i.p. day 4 or day 8, alone) is listed as “unable to induce any effect on tumor reduction”. Further, in data set [3] (15 mg/Kg body weight i.p. on day 8, alone, vs PBS), the tumor size result was “greater than observed with PBS”.
Regarding `COc1ccc2c(c1)c(CC(=O)O)c(C)n2C(=O)c1ccc(Cl)cc1` [Indomethacin], the tumor volume result is listed as “did not show any significant reduction in tumor volume” in data set [1] (0.1, 1 or 10 mg/Kg body weight i.p. day 4, alone, even at the highest dose) and “seemed to reverse the beneficial effects observed with Mycobacterium indicus pranii” in data set [1] (MIP ~5×10^8 intradermal day 3 plus drug i.p. day 4 (Cyclophosphamide 15, Indomethacin 1 or RU486 1 mg/Kg b. wt.)).
